Drawing on patent publication US9469615B2, “Quinoxalines and AZA-quinoxalines as CRTH2 receptor modulators” (Merck Sharp & Dohme Corp., priority 2010, dated 2016), this text covers Ki for 29 compounds.

As a reminder, the Ki is the equilibrium dissociation constant of an inhibitor or competing ligand from its target. The low end stands for higher affinity, the high end for lower affinity.

The assay has as its target T1, hCRTH2 (Homo sapiens, UniProt Q9Y5Y4).
T1 construct: expressed in transfected cells; host or cells: HEK (human embryonic kidney) cells expressing hCRTH2; membrane preparation
T1 sequence (Q9Y5Y4 1-395): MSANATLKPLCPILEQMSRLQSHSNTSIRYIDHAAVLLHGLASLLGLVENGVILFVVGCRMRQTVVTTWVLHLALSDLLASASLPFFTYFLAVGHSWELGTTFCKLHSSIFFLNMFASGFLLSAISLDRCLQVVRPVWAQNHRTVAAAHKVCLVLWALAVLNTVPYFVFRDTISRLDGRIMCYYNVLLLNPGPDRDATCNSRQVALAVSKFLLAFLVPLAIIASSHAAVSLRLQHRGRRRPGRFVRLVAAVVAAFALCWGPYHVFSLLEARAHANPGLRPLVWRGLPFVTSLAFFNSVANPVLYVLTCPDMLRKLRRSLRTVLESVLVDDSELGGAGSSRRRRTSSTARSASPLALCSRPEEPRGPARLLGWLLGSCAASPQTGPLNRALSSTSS
Description: Radioligand binding assay ([3H]PGD2 competition, HEK-hCRTH2 membranes). The method in brief: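 Competition against 3.0 nM [3H]PGD2 was run for 60 min at room temperature in pH 7.4 Tris-HCl buffer with EDTA, 2 mM MnCl2 and 1% DMSO, using 8-20 μg HEK-hCRTH2 membrane protein. 10 μM PGD2 set non-specific binding; filter-bound counts were read by scintillation.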

On to `O=C(N[C@@H]1CCCc2ccccc21)c1ccc2nc(-c3ccc(F)cc3)c(CC[C@H]3C[C@@H]3C(=O)O)nc2c1` [compound 262, (1S,2S)-2-(2-(3-(4-fluorophenyl)-7-(((R)-1,2,3,4-tetrahydronaphthalen-1-yl)carbamoyl)quinoxalin-2-yl)ethyl)cyclopropanecarboxylic acid], for which the Ki ([3H]PGD2 competition, Table B) lay in the range of 2.1 to 20 nM.
Same read-out and setting: then `O=C(N[C@@H]1CCCc2cc(F)ccc21)c1ccc2nc(-c3ccc(F)cc3)c(CC[C@@H]3C[C@H]3C(=O)O)nc2c1` [compound 263, (1R,2R)-2-(2-(7-(((R)-6-fluoro-1,2,3,4-tetrahydronaphthalen-l-yl)carbamoyl)-3-(4-fluorophenyl)quinoxalin-2-yl)ethyl)cyclopropanecarboxylic acid], with 2.1 to 20 nM.
Take `O=C(N[C@@H]1CCCc2cc(F)ccc21)c1ccc2nc(-c3ccc(F)cc3)c(CCC3CC3C(=O)O)nc2c1` (stereo partly drawn) [compound 264, 2-(2-(7-(((R)-6-fluoro-1,2,3,4-tetrahydronaphthalen-l-yl)carbamoyl)-3-(4-fluorophenyl)quinoxalin-2-yl)ethyl)cyclopropanecarboxylic acid]: the inhibition constant Ki by setting is: ([3H]PGD2 binding, values in text) 15.4 nM; ([3H]PGD2 competition, Table B) 2.1 to 20 nM.
Where the note is “[3H]PGD2 competition, Table B”, `C[C@@H]1CN(c2ccc(F)cc2)CCN1C(=O)c1ccc2nc(-c3ccccc3)c(CCCCC(=O)O)nc2c1` [compound 265, (R)-5-(7-(4-(4-fluorophenyl)-2-methylpiperazine-1-carbonyl)-3-phenylquinoxalin-2-yl)pentanoic acid] came in with an inhibition constant Ki of 2.1 to 20 nM.
On the same count and under the same terms, then `O=C(O)CCCCc1nc2cc(C(=O)NC3CC(=O)Nc4ccccc43)ccc2nc1-c1ccccc1` (stereo not drawn) [compound 266, 5-(7-((2-oxo-1,2,3,4-tetrahydroquinolin-4-yl)carbamoyl)-3-phenylquinoxalin-2-yl)pentanoic acid], with 2.1 to 20 nM; and `O=C(O)CCCCc1nc2cc(C(=O)N3CCC4(CC3)CNC(=O)c3ccccc34)ccc2nc1-c1ccc(Cl)cc1` [compound 267, 5-(3-(4-chlorophenyl)-7-(1-oxo-2,3-dihydro-1H-spiro[isoquinoline-4,4′-piperidin]-1′-ylcarbonyl)quinoxalin-2-yl)pentanoic acid], with 2.1 to 20 nM; and `O=C(O)CCCCc1nc2cc(C(=O)NC3CCC(=O)Nc4ccccc43)ccc2nc1-c1ccc(Cl)cc1` (stereo not drawn) [compound 268, 5-(3-(4-chlorophenyl)-7-((2-oxo-2,3,4,5-tetrahydro-1H-benzo[b]azepin-5-yl)carbamoyl)quinoxalin-2-yl)pentanoic acid], with 2.1 to 20 nM.
`O=C(O)Cc1cccc(CCCc2nc3cc(C(=O)N[C@@H]4CCCc5ccccc54)ccc3nc2-c2ccc(F)cc2)c1` [compound 269, (R)-2-(3-(3-(3-(4-fluorophenyl)-7-((1,2,3,4-tetrahydronaphthalen-1-yl)carbamoyl)quinoxalin-2-yl)propyl)phenyl)acetic acid] showed a Ki ([3H]PGD2 competition, Table B) of 201 to 700 nM.
Where the note is “[3H]PGD2 competition, Table B”, `O=C(O)Cc1cccc(CCCc2nc3cc(C(=O)N[C@H]4CCCc5ccccc54)ccc3nc2-c2ccc(F)cc2)c1` [compound 270, (S)-2-(3-(3-(3-(4-fluorophenyl)-7-((1,2,3,4-tetrahydronaphthalen-1-yl)carbamoyl)quinoxalin-2-yl)propyl)phenyl)acetic acid] had a Ki of 201 to 700 nM.
As for `C[C@@H](NC(=O)c1ccc2nc(-c3ccc(F)cc3)c(CCCc3cccc(CC(=O)O)c3)nc2c1)c1ccc(F)cc1` [compound 271], where the note is “[3H]PGD2 competition, Table B”, the inhibition constant (Ki) is 201 to 700 nM.
Still for that read-out and setting: the same measure for `O=C(O)Cc1cccc(CCCc2nc3cc(C(=O)N4CCN(c5ccccc5)CC4)ccc3nc2-c2ccc(F)cc2)c1` [compound 272, 2-(3-(3-(3-(4-fluorophenyl)-7-(4-phenylpiperazine-1-carbonyl)quinoxalin-2-yl)propyl)phenyl)acetic acid]: 20.1 to 200 nM; for `O=C(O)Cc1cccc(CCCc2nc3cc(C(=O)N4CC(c5cccc(F)c5)C4)ccc3nc2-c2ccc(F)cc2)c1` [compound 273, 2-(3-(3-(3-(4-fluorophenyl)-7-(3-(3-fluorophenyl)azetidine-1-carbonyl)quinoxalin-2-yl)propyl)phenyl)acetic acid]: 20.1 to 200 nM.
On to `O=C(O)Cc1cccc(CCCc2nc3cc(C(=O)N4CC[C@@H](c5ccccc5)C4)ccc3nc2-c2ccc(F)cc2)c1` [compound 274, (S)-2-(3-(3-(3-(4-fluorophenyl)-7-(3-phenylpyrrolidine-1-carbonyl)quinoxalin-2-yl)propyl)phenyl)acetic acid], for which the Ki ([3H]PGD2 competition, Table B) fell in the range of 2.1 to 20 nM.
`CN(Cc1ccc(F)cc1)C(=O)c1ccc2nc(-c3ccc(F)cc3)c(CCCc3cccc(CC(=O)O)c3)nc2c1` [compound 275, 2-(3-(3-(7-((4-fluorobenzyl)(methyl)carbamoyl)-3-(4-fluorophenyl)quinoxalin-2-yl)propyl)phenyl)acetic acid] had an inhibitory constant (Ki) ([3H]PGD2 competition, Table B) of 20.1 to 200 nM.
Compound `C[C@H](CCc1nc2cc(C(=O)N[C@@H]3CCCc4ccccc43)ccc2nc1-c1ccccc1)CC(=O)O` [compound 276, (R)-3-methyl-5-(3-phenyl-7-(((R)-1,2,3,4-tetrahydronaphthalen-1-yl)carbamoyl)quinoxalin-2-yl)pentanoic acid] gave a Ki ([3H]PGD2 competition, Table B) of 2.1 to 20 nM.
As for `C[C@H](CCc1nc2cc(C(=O)N[C@H]3CCCc4ccccc43)ccc2nc1-c1ccccc1)CC(=O)O` [compound 277, (R)-3-methyl-5-(3-phenyl-7-(((S)-1,2,3,4-tetrahydronaphthalen-1-yl)carbamoyl)quinoxalin-2-yl)pentanoic acid], the Ki ([3H]PGD2 competition, Table B) lay within 2.1 to 20 nM.
The same measure, in the same setting: the same measure for `C[C@H](CCc1nc2cc(C(=O)N[C@H](C)c3ccc(F)cc3)ccc2nc1-c1ccccc1)CC(=O)O` [compound 278, (R)-5-(7-(((R)-1-(4-fluorophenyl)ethyl)carbamoyl)-3-phenylquinoxalin-2-yl)-3-methylpentanoic acid]: 20.1 to 200 nM; for `C[C@H](CCc1nc2cc(C(=O)N[C@@H](C)c3ccc(F)cc3)ccc2nc1-c1ccccc1)CC(=O)O` [compound 279, (R)-5-(7-(((S)-1-(4-fluorophenyl)ethyl)carbamoyl)-3-phenylquinoxalin-2-yl)-3-methylpentanoic acid]: 20.1 to 200 nM.
The compound `C[C@H](CCc1nc2cc(C(=O)N3CCN(c4ccccc4)CC3)ccc2nc1-c1ccccc1)CC(=O)O` [compound 280, (R)-3-methyl-5-(3-phenyl-7-(4-phenylpiperazine-1-carbonyl)quinoxalin-2-yl)pentanoic acid] had a Ki ([3H]PGD2 competition, Table B) of 701 to 2300 nM.
Still for that read-out and setting: the same measure for `C[C@H](CCc1nc2cc(C(=O)N3CC(c4cccc(F)c4)C3)ccc2nc1-c1ccccc1)CC(=O)O` [compound 281, (R)-5-(7-(3-(3-fluorophenyl)azetidine-1-carbonyl)-3-phenylquinoxalin-2-yl)-3-methylpentanoic acid]: 20.1 to 200 nM; for `C[C@H](CCc1nc2cc(C(=O)N3CC[C@@H](c4ccccc4)C3)ccc2nc1-c1ccccc1)CC(=O)O` [compound 282, (R)-3-methyl-5-(3-phenyl-7-((S)-3-phenylpyrrolidine-1-carbonyl)quinoxalin-2-yl)pentannic acid]: 201 to 700 nM.
On to `C[C@H](CCc1nc2cc(C(=O)N(C)Cc3ccc(F)cc3)ccc2nc1-c1ccccc1)CC(=O)O` [compound 283, (R)-5-(7-((4-fluorobenzyl)(methyl)carbamoyl)-3-phenylquinoxalin-2-yl)-3-methylpentanoic acid], for which the Ki ([3H]PGD2 competition, Table B) fell in the range of 201 to 700 nM.
On the same count and under the same terms, then `O=C(O)CCCCc1nc2cc(C(=O)NC3CC(=O)Nc4ccc(F)cc43)ccc2nc1-c1ccccc1` (stereo not drawn) [compound 284, 5-(7-((6-fluoro-2-oxo-1,2,3,4-tetrahydroquinolin-4-yl)carbamoyl)-3-phenylquinoxalin-2-yl)pentanoic acid], with 2.1 to 20 nM; and `Cc1ccc([C@@]23C[C@@H]2CN(C(=O)c2ccc4nc(-c5ccc(Cl)cc5)c(CCCCC(=O)O)nc4c2)C3)cc1` [compound 285, 5-(3-(4-chlorophenyl)-7-((1R,5S)-1-(p-tolyl)-3 - azabicyclo[3.1.0]hexane-3-carbonyl)quinoxalin-2-yl)pentanoic acid], with 2.1 to 20 nM; and `C[C@@H](CCc1nc2cc(C(=O)N[C@H]3CCCc4ccccc43)ccc2nc1-c1ccccc1)CC(=O)O` [compound 286, (S)-3-methyl-5-(3-phenyl-7-(((S)-1,2,3,4-tetrahydronaphthalen-1-yl)carbamoyl)quinoxalin-2-yl)pentanoic acid], with 20.1 to 200 nM.
The same measure, in the same setting: then `C[C@@H](CCc1nc2cc(C(=O)N[C@H](C)c3ccc(F)cc3)ccc2nc1-c1ccccc1)CC(=O)O` [compound 287, (S)-5-(7-(((R)-1-(4-fluorophenyl)ethyl)carbamoyl)-3-phenylquinoxalin-2-yl)-3-methylpentanoic acid], with 20.1 to 200 nM; and `C[C@@H](CCc1nc2cc(C(=O)N[C@@H](C)c3ccc(F)cc3)ccc2nc1-c1ccccc1)CC(=O)O` [compound 288, (S)-5-(7-(((S)-1-(4-fluorophenyl)ethyl)carbamoyl)-3-3-phenylquinoxalin-2-yl)-3-methylpentanoic acid], with 20.1 to 200 nM; and `C[C@@H](CCc1nc2cc(C(=O)N3CCN(c4ccccc4)CC3)ccc2nc1-c1ccccc1)CC(=O)O` [compound 289, (S)-3-methyl-5-(3-phenyl-7-(4-phenylpiperazine-1-carbonyl)quinoxalin-2-yl)pentanoic acid], with 20.1 to 200 nM.
The same measure, in the same setting: then `C[C@@H](CCc1nc2cc(C(=O)N3CC(c4cccc(F)c4)C3)ccc2nc1-c1ccccc1)CC(=O)O` [compound 290, (S)-5-(7-(3-(3-fluorophenyl)azetidine-1-carbonyl)-3-phenylquinoxalin-2-yl)-3-methylpentanoic acid], with 2.1 to 20 nM.
